According to ChEMBL document CHEMBL1201862, “PubChem BioAssay data set” (2004):
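Where inhibition never reached the appropriate level, the endpoint shown equals the highest concentration tested. Otherwise, values were interpolated linearly from a five-concentration, 48-hour dose response in 96-well plates. At the GI50, growth is halved.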 Active and inactive are the calls of the source. Rule as the data show it: active = GI50 up to about 1.1 µM and inactive = higher.

Key:
Assay in all cases: growth of human tumour cells (NCI), 48 h
[1] = test system: 786-0
[2] = test system: A498
[3] = test system: A549
[4] = test system: ACHN
[5] = test system: CAKI-1
[6] = test system: CCRF-CEM
[7] = test system: COLO 205
[8] = test system: DLD-1
[9] = test system: DMS-114
[10] = test system: DMS-273
[11] = test system: EKVX
[12] = test system: HCC 2998
[13] = test system: HCT-116
[14] = test system: HCT-15
[15] = test system: HOP-18
[16] = test system: HOP-92
[17] = test system: HT-29
[18] = test system: IGROV-1
[19] = test system: K562
[20] = test system: KM-20L2
[21] = test system: KM12
[22] = test system: LOX IMVI
[23] = test system: LXFL 529
[24] = test system: M14
[25] = test system: M19-MEL
[26] = test system: MOLT-4
[27] = test system: Malme-3M
[28] = test system: NCI-H226
[29] = test system: NCI-H23
[30] = test system: NCI-H460
[31] = test system: NCI-H522
[32] = test system: OVCAR-4
[33] = test system: OVCAR-5
[34] = test system: OVCAR-8
[35] = test system: RPMI-8226
[36] = test system: RXF 393
[37] = test system: SF-268
[38] = test system: SK-MEL-28
[39] = test system: SK-MEL-2
[40] = test system: SK-OV-3
[41] = test system: SN12C
[42] = test system: SNB-19
[43] = test system: SNB-75
[44] = test system: SNB-78
[45] = test system: SW-620
[46] = test system: TK-10
[47] = test system: U-251
[48] = test system: UACC-257
[49] = test system: UACC-62
[50] = test system: UO-31
[51] = test system: HOP-62
[52] = test system: OVCAR-3
[53] = test system: SF-295
[54] = test system: SF-539
[55] = test system: SK-MEL-5
[56] = test system: HL-60
[57] = test system: SR

Measured: GI50

CC1(C)NC(=O)N(CCCCCCN2C(=O)NC(C)(C)C2=O)C1=O
inactive: [1] > 100 µM | [2] > 100 µM | [3] > 100 µM | [4] > 100 µM | [5] > 100 µM | [6] > 100 µM | [7] > 100 µM | [8] > 100 µM | [9] > 100 µM | [10] > 100 µM | [11] > 100 µM | [12] > 100 µM | [13] > 100 µM | [15] > 100 µM | [16] > 100 µM | [17] > 100 µM | [18] > 100 µM | [19] > 100 µM | [20] > 100 µM | [21] > 100 µM | [22] > 100 µM | [23] > 100 µM | [24] > 100 µM | [25] > 100 µM | [26] > 100 µM | [27] > 100 µM | [28] > 100 µM | [29] > 100 µM | [30] > 100 µM | [31] > 100 µM | [32] > 100 µM | [33] > 100 µM | [34] > 100 µM | [35] > 100 µM | [36] > 100 µM | [37] > 100 µM | [38] > 100 µM | [39] > 100 µM | [40] > 100 µM | [41] > 100 µM | [42] 97.9 µM | [43] > 100 µM | [44] > 100 µM | [45] > 100 µM | [46] > 100 µM | [47] > 100 µM | [48] > 100 µM | [49] > 100 µM | [50] > 100 µM
> 100 µM: [14]

CC(=O)c1ccc(Oc2ccc(/C(C)=N\N=C(N)N)cc2)cc1
inactive: [2] 1.77 µM | [3] 4.12 µM | [4] 4.73 µM | [6] 1.91 µM | [7] 1.67 µM | [8] 3.56 µM | [9] 1.43 µM | [11] 4.51 µM | [12] 8.41 µM | [13] 3.24 µM | [51] 2.26 µM | [16] 2.96 µM | [17] 1.67 µM | [18] 5.62 µM | [20] 1.71 µM | [22] 3.4 µM | [23] 4.18 µM | [24] 1.5 µM | [26] 2.25 µM | [27] 1.97 µM | [29] 3.75 µM | [30] 2.77 µM | [31] 1.8 µM | [52] 1.99 µM | [32] 10.6 µM | [33] 4.68 µM | [34] 3.12 µM | [35] 2.31 µM | [37] 3.59 µM | [53] 2.38 µM | [54] 1.72 µM | [38] 4.68 µM | [39] 1.73 µM | [55] 2.08 µM | [40] 2.83 µM | [41] 3.17 µM | [42] 10.7 µM | [43] 1.47 µM | [44] 2.8 µM | [46] 3.28 µM | [47] 2.77 µM | [48] 5.68 µM | [49] 2 µM
2.17 µM: [14]

O=[N+]([O-])c1cc(Cl)ccc1S(=O)(=O)c1ccc(Cl)cc1[N+](=O)[O-]
17.3 µM: [14]
inactive: [1] 15.5 µM | [3] 25.4 µM | [4] 16.1 µM | [5] 19.7 µM | [6] 24.1 µM | [7] 17 µM | [8] 15.6 µM | [9] 11.3 µM | [10] 14.2 µM | [13] 15.7 µM | [56] 19.9 µM | [15] 16.7 µM | [51] 21.3 µM | [16] 18.5 µM | [17] 16.8 µM | [18] 15.9 µM | [19] 28.2 µM | [20] 16.7 µM | [21] 14.2 µM | [22] 16.1 µM | [23] 14.1 µM | [24] 16.7 µM | [25] 15 µM | [26] 25 µM | [27] 13.5 µM | [28] 12.4 µM | [29] 15.2 µM | [30] 16.1 µM | [31] 16.1 µM | [52] 17.3 µM | [32] 17.9 µM | [33] 19.5 µM | [34] 16 µM | [35] 29.6 µM | [36] 15.1 µM | [37] 15 µM | [53] 15.1 µM | [54] 18 µM | [38] 18.1 µM | [39] 18 µM | [55] 14.6 µM | [40] 15.8 µM | [41] 15.7 µM | [42] 17.4 µM | [43] 15.7 µM | [44] 16.1 µM | [57] 4.19 µM | [45] 18.5 µM | [46] 17.6 µM | [47] 19.8 µM | [48] 13.5 µM | [49] 16.9 µM | [50] 17.1 µM
